Measurements published in patent publication US8192962B2, “Processes for detecting toxic substances” (Daikin Industries, Ltd., priority 2001, dated 2012).

System: DNA repair protein genes
Assay: DNA chip mRNA expression in yeast, DNA repair protein genes (Table 3)
Assay type: cell-based, Saccharomyces cerevisiae S288C
Conditions: incubated two hours, concentrations as in the 1st table
How it was run: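 Expression change after 2 h toxicant exposure (growth-inhibiting, sub-lethal) of log-phase S. cerevisiae S288C at 25° C. Oligo-dT-purified mRNA was labeled with Cy3-dUTP or Cy5-dUTP and hybridized >12 h at 65° C. to a genome-wide chip; ratio of scanned fluorescence to control.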

SMILES: COc1cc(CNC(=O)CCCCC=CC(C)C)ccc1O [(12), 8-methyl-N-vanillyl-6-nonenamide]
- The level of expressed mRNA in the presence of chemical substance/The level of expressed mRNA in the absence of chemical substance (yeast gene YAL015C): 1.0
- The level of expressed mRNA in the presence of chemical substance/The level of expressed mRNA in the absence of chemical substance (yeast gene YAR007C): 0.9
- The level of expressed mRNA in the presence of chemical substance/The level of expressed mRNA in the absence of chemical substance (yeast gene YBL019W): 0.8
- The level of expressed mRNA in the presence of chemical substance/The level of expressed mRNA in the absence of chemical substance (yeast gene YBR073W): 0.9
- The level of expressed mRNA in the presence of chemical substance/The level of expressed mRNA in the absence of chemical substance (yeast gene YBR272C): 0.5
- The level of expressed mRNA in the presence of chemical substance/The level of expressed mRNA in the absence of chemical substance (yeast gene YCR014C): 0.7
- The level of expressed mRNA in the presence of chemical substance/The level of expressed mRNA in the absence of chemical substance (yeast gene YDL017W): 0.8
- The level of expressed mRNA in the presence of chemical substance/The level of expressed mRNA in the absence of chemical substance (yeast gene YDL059C): 1.3
- The level of expressed mRNA in the presence of chemical substance/The level of expressed mRNA in the absence of chemical substance (yeast gene YDL200C): 1.1
- The level of expressed mRNA in the presence of chemical substance/The level of expressed mRNA in the absence of chemical substance (yeast gene YDR054C): 1.0
- The level of expressed mRNA in the presence of chemical substance/The level of expressed mRNA in the absence of chemical substance (yeast gene YDR369C): 0.9
- The level of expressed mRNA in the presence of chemical substance/The level of expressed mRNA in the absence of chemical substance (yeast gene YEL019C): 1.0
- The level of expressed mRNA in the presence of chemical substance/The level of expressed mRNA in the absence of chemical substance (yeast gene YEL037C): 1.1
- The level of expressed mRNA in the presence of chemical substance/The level of expressed mRNA in the absence of chemical substance (yeast gene YER162C): 0.4
- The level of expressed mRNA in the presence of chemical substance/The level of expressed mRNA in the absence of chemical substance (yeast gene YFL014W): 4.3
- The level of expressed mRNA in the presence of chemical substance/The level of expressed mRNA in the absence of chemical substance (yeast gene YGL058W): 1.3
- The level of expressed mRNA in the presence of chemical substance/The level of expressed mRNA in the absence of chemical substance (yeast gene YGL091C): 1.2
- The level of expressed mRNA in the presence of chemical substance/The level of expressed mRNA in the absence of chemical substance (yeast gene YGL127C): 1.4
- The level of expressed mRNA in the presence of chemical substance/The level of expressed mRNA in the absence of chemical substance (yeast gene YGL163C): 0.9
- The level of expressed mRNA in the presence of chemical substance/The level of expressed mRNA in the absence of chemical substance (yeast gene YGL249W): 0.8
- The level of expressed mRNA in the presence of chemical substance/The level of expressed mRNA in the absence of chemical substance (yeast gene YGR180C): 0.9
- The level of expressed mRNA in the presence of chemical substance/The level of expressed mRNA in the absence of chemical substance (yeast gene YGR231C): 1.3
- The level of expressed mRNA in the presence of chemical substance/The level of expressed mRNA in the absence of chemical substance (yeast gene YGR258C): 0.9
- The level of expressed mRNA in the presence of chemical substance/The level of expressed mRNA in the absence of chemical substance (yeast gene YHR164C): 1.2
- The level of expressed mRNA in the presence of chemical substance/The level of expressed mRNA in the absence of chemical substance (yeast gene YIL036W): 1.2
- The level of expressed mRNA in the presence of chemical substance/The level of expressed mRNA in the absence of chemical substance (yeast gene YIL072W): 1.1
- The level of expressed mRNA in the presence of chemical substance/The level of expressed mRNA in the absence of chemical substance (yeast gene YIL143C): 0.9
- The level of expressed mRNA in the presence of chemical substance/The level of expressed mRNA in the absence of chemical substance (yeast gene YIL153W): 1.0
- The level of expressed mRNA in the presence of chemical substance/The level of expressed mRNA in the absence of chemical substance (yeast gene YIR002C): 1.3
- The level of expressed mRNA in the presence of chemical substance/The level of expressed mRNA in the absence of chemical substance (yeast gene YJL026W): 1.0
- The level of expressed mRNA in the presence of chemical substance/The level of expressed mRNA in the absence of chemical substance (yeast gene YJR046W): 0.9
- The level of expressed mRNA in the presence of chemical substance/The level of expressed mRNA in the absence of chemical substance (yeast gene YJR052W): 1.1
- The level of expressed mRNA in the presence of chemical substance/The level of expressed mRNA in the absence of chemical substance (yeast gene YKL145W): 1.3
- The level of expressed mRNA in the presence of chemical substance/The level of expressed mRNA in the absence of chemical substance (yeast gene YLR103C): 1.6
- The level of expressed mRNA in the presence of chemical substance/The level of expressed mRNA in the absence of chemical substance (yeast gene YLR233C): 0.9
- The level of expressed mRNA in the presence of chemical substance/The level of expressed mRNA in the absence of chemical substance (yeast gene YLR288C): 0.6
- The level of expressed mRNA in the presence of chemical substance/The level of expressed mRNA in the absence of chemical substance (yeast gene YML032C): 0.9
- The level of expressed mRNA in the presence of chemical substance/The level of expressed mRNA in the absence of chemical substance (yeast gene YML058W): 0.9
- The level of expressed mRNA in the presence of chemical substance/The level of expressed mRNA in the absence of chemical substance (yeast gene YMR035W): 0.5
- The level of expressed mRNA in the presence of chemical substance/The level of expressed mRNA in the absence of chemical substance (yeast gene YMR072W): 0.8
- The level of expressed mRNA in the presence of chemical substance/The level of expressed mRNA in the absence of chemical substance (yeast gene YMR096W): 1.4
- The level of expressed mRNA in the presence of chemical substance/The level of expressed mRNA in the absence of chemical substance (yeast gene YMR284W): 0.6
- The level of expressed mRNA in the presence of chemical substance/The level of expressed mRNA in the absence of chemical substance (yeast gene YNL213C): 0.8
- The level of expressed mRNA in the presence of chemical substance/The level of expressed mRNA in the absence of chemical substance (yeast gene YNL250W): 1.4
- The level of expressed mRNA in the presence of chemical substance/The level of expressed mRNA in the absence of chemical substance (yeast gene YNL261W): 0.8
- The level of expressed mRNA in the presence of chemical substance/The level of expressed mRNA in the absence of chemical substance (yeast gene YNL312W): 0.9
- The level of expressed mRNA in the presence of chemical substance/The level of expressed mRNA in the absence of chemical substance (yeast gene YOL043C): 0.8
- The level of expressed mRNA in the presence of chemical substance/The level of expressed mRNA in the absence of chemical substance (yeast gene YOR005C): 0.9
- The level of expressed mRNA in the presence of chemical substance/The level of expressed mRNA in the absence of chemical substance (yeast gene YOR386W): 1.2
- The level of expressed mRNA in the presence of chemical substance/The level of expressed mRNA in the absence of chemical substance (yeast gene YPL022W): 0.7
- The level of expressed mRNA in the presence of chemical substance/The level of expressed mRNA in the absence of chemical substance (yeast gene YPL164C): 0.9
- The level of expressed mRNA in the presence of chemical substance/The level of expressed mRNA in the absence of chemical substance (yeast gene YPL194W): 0.9
- The level of expressed mRNA in the presence of chemical substance/The level of expressed mRNA in the absence of chemical substance (yeast gene YPR025C): 0.7
